Test results from ChEMBL document CHEMBL1132755, “First enantiospecific synthesis of a 3,4-dihydroxy-L-glutamic acid [(3S,4S)-DHGA], a new mGluR1 agonist” (Bioorg Med Chem Lett, 2000).

How the values were obtained:
[1] = target: Metabotropic glutamate receptor 4 (Homo sapiens) (UniProt Q14833); experiment: Tested for inhibition of glutamate induced stimulation of Metabotropic glutamate receptor 4 in HEK 293 cells; format: functional, cell-based; settings: HEK293; concentration not given here
[2] = target: Metabotropic glutamate receptor 1 (Homo sapiens, UniProt Q13255); experiment: Effect of compound on Metabotropic glutamate receptor 1 expressed in HEK 293 cells was determined by measuring IP production relative to glutamate; format: functional, cell-based, HEK293
Metabotropic glutamate receptor 1, sequence (Q13255 whole entry): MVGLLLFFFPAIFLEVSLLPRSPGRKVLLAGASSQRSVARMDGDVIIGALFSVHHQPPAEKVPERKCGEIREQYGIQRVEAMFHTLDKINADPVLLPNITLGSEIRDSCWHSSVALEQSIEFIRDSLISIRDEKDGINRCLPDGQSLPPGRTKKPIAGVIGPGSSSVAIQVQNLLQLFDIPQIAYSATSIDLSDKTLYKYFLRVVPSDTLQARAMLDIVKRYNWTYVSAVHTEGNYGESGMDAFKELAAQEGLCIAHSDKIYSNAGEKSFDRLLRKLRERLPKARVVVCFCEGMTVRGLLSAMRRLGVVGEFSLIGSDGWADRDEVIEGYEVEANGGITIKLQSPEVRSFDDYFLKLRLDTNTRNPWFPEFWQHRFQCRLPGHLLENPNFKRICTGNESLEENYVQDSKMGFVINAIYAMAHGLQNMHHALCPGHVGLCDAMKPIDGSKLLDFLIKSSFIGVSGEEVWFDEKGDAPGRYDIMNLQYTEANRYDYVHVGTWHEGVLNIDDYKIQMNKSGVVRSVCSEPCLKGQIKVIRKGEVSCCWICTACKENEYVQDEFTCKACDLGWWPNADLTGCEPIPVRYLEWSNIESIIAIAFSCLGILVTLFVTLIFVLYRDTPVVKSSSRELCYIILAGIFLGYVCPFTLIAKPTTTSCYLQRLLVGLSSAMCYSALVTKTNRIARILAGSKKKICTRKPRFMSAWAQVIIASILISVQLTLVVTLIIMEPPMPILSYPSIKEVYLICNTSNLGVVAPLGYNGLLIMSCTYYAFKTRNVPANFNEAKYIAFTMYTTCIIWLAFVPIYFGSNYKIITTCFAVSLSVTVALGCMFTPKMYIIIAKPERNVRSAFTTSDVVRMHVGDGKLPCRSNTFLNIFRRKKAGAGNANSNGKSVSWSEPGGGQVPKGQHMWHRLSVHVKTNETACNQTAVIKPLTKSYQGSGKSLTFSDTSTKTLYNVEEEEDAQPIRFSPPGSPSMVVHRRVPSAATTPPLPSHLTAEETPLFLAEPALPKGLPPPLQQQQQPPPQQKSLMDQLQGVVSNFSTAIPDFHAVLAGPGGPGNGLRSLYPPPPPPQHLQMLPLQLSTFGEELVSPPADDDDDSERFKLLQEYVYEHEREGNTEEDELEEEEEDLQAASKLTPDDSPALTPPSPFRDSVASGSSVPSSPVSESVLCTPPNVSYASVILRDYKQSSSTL

[3] = target: Metabotropic glutamate receptor 2 (Homo sapiens) (UniProt Q14416); experiment: Tested for inhibition of glutamate induced stimulation of Metabotropic glutamate receptor 2 in HEK 293ells; format: functional, cell-based; settings: HEK293; concentration not given here
Metabotropic glutamate receptor 2 (Homo sapiens), sequence (Q14416 19-872 limits assumed): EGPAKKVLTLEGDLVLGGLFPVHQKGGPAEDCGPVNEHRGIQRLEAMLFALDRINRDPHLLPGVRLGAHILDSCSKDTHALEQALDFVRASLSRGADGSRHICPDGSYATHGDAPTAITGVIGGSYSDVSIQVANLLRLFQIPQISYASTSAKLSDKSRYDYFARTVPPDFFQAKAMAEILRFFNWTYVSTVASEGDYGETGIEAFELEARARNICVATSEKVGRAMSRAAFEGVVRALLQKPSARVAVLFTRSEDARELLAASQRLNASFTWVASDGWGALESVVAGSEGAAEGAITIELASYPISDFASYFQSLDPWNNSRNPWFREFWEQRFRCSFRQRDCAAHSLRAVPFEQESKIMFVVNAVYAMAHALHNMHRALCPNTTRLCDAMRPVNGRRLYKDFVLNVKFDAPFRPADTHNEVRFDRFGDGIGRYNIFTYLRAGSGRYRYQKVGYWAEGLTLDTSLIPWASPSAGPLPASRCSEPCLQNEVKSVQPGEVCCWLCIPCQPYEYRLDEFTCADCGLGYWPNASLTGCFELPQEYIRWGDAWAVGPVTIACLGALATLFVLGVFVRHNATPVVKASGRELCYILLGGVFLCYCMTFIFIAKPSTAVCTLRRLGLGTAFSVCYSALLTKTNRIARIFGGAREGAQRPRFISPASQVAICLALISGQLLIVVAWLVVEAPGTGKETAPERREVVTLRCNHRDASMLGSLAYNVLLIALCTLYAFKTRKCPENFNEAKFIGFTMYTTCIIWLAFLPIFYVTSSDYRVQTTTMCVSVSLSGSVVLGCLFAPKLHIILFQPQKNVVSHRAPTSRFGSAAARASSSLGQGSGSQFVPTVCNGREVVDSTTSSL

Metabotropic glutamate receptor 4 (Homo sapiens), sequence (Q14833 whole entry): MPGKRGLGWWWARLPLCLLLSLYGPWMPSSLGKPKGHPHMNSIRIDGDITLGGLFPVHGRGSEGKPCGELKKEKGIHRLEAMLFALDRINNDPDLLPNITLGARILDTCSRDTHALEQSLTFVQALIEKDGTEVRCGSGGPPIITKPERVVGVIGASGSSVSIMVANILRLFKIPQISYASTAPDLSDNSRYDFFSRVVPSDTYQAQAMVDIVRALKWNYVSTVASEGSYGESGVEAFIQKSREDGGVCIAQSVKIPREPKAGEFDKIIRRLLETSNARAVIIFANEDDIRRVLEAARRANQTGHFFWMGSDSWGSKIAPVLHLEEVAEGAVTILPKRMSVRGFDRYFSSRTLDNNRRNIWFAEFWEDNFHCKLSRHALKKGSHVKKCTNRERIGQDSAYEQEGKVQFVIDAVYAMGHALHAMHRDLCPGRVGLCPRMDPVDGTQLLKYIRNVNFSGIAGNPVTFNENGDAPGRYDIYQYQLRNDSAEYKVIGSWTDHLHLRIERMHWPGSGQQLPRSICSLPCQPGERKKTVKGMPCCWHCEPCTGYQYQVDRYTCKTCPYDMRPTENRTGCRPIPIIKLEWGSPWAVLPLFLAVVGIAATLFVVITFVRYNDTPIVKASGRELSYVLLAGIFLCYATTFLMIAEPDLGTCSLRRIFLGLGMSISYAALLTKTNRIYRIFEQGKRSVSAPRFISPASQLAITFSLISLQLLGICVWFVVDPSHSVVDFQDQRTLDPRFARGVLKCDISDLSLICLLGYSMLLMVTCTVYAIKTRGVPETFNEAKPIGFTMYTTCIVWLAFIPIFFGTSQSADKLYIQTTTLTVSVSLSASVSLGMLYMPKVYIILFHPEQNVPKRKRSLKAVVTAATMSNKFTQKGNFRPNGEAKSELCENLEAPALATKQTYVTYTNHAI

inhibition [1]: 57% | EC50 [2]: 257 µM | inhibition [3]: 29%
SMILES: N[C@H](C(=O)O)[C@H](O)[C@H](O)C(=O)O
